# According to patent US7718686B2, “Imidazole variants as modulators of GABA receptor for the treatment of GI disorders” (AstraZeneca AB, priority 2004, dated 2010):
# Target: T1, GABAB receptor (Homo sapiens, UniProt O75899+Q9UBS5)
# T1 construct: expressed in transfected cells; host or cells: CHO-K1 (membranes)
# Test: [35S]-GTPγS binding assay with GABA in the presence or absence of PAM
# Assay type: biochemical
# Conditions: log EC50 for GABA plotted against log concentration of the positive allosteric modulator; read-out: EC50 (potency of the positive allosteric modulator)
# Description: [^35S]-GTPγS binding assays were performed at 30° C. for 45 min in membrane buffer (100 mM NaCl, 5 mM MgCl2, 1 mM EDTA, 50 mM HEPES, pH 7.4) containing 0.025 μg/μl of membrane protein (prepared from the cell lines described above) with 0.01% bovine serum albumin (fatty acid free), 10 μM GDP, 100 μM DTT and 0.53 nM [^35S]-GTPγS (Amersham-Pharmacia Biotech) in a final volume of 200 μl. Non-specific binding was determined in the presence of 20 μM GTPγS. The reaction was started by the addition of GABA at concentration between 1 mM and 0.1 mM in the presence or absence of the required concentration of PAM. The reaction was terminated by addition of ice-cold wash buffer (50 mM Tris-HCl, 5 mM MgCl2, 50 mM NaCl, pH 7.4) followed by rapid filtration under vacuum through Printed Filtermat A glass fiber filters (Wallac) (0.05% PEI treated) using a Micro 96 Harvester (Skatron Instruments). The filters were dried for 30 min at 50° C., then a paraffin scintillant pad was melted onto the filters and the bound radioactivity was determined using a 1450 Microbeta Trilux (Wallac) scintillation counter.
# GABA dose-response curves in the presence and absence of test compounds were constructed using the 4-parameter logistic equation, y=ymax+((ymin−ymax)/1+(x/C)^D) where C=EC50 and D=slope factor.
# The potency of PAM in GTPγS assays was determined by plotting the log EC50 for GABA against the log concentration of the positive allosteric modulator in the presence of which the measurement was performed.
# T1 sequence (Q9UBS5 15-961 limits assumed): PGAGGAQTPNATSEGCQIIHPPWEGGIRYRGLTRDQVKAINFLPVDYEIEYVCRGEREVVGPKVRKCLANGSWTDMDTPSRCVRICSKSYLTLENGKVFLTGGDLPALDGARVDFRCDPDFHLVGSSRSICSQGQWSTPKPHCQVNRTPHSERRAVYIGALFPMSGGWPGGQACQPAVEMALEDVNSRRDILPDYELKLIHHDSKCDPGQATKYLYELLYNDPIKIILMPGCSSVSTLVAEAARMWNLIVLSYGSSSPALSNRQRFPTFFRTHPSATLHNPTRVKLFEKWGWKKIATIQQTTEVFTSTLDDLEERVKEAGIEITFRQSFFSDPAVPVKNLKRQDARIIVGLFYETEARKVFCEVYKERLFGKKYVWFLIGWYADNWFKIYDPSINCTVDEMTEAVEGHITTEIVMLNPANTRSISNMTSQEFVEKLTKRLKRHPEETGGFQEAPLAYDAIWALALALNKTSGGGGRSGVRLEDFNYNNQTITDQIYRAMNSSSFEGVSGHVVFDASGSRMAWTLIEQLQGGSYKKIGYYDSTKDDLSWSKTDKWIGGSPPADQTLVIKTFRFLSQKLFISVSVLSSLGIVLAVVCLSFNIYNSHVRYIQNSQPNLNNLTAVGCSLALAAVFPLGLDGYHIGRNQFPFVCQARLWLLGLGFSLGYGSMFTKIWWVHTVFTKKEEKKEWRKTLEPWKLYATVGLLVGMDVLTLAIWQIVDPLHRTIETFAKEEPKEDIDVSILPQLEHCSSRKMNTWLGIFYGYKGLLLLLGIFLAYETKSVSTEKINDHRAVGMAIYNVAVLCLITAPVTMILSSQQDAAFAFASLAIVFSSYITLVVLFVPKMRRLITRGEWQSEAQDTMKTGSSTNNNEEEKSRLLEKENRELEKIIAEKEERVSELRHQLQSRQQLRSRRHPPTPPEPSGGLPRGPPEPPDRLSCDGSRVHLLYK
# T1 sequence (O75899 42-941): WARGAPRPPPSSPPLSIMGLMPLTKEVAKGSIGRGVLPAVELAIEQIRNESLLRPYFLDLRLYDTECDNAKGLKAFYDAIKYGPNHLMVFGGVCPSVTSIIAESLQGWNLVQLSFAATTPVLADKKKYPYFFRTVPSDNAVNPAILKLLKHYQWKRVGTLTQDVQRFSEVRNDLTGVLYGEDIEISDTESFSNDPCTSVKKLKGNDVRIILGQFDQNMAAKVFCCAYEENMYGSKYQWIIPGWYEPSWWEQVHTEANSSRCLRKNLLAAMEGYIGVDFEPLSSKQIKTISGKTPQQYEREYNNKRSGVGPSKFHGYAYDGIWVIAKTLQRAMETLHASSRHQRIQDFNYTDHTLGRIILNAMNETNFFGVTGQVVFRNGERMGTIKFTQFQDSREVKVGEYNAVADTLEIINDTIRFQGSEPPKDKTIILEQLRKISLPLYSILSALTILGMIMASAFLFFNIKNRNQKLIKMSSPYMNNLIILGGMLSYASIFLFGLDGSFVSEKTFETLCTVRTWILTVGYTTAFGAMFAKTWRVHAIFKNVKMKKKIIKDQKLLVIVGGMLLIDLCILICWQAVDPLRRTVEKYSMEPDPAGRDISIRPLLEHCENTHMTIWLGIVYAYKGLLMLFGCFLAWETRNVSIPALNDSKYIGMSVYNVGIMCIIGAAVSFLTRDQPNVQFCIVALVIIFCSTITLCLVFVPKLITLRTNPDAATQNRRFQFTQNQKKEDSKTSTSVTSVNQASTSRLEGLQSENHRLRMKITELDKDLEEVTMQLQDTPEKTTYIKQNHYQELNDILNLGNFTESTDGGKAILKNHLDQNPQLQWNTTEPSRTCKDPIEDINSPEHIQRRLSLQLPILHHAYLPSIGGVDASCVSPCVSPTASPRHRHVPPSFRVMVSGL
row,EC50,SMILES
1,300 nM,"CCCCC(C)(C)OC(=O)c1c(NC(=O)c2ccc(Cl)cc2)nc(SC)n1-c1ccccc1 [1,1-dimethylpentyl 4-[(4-chlorobenzoyl)amino]-2-(methylthio)-1-phenyl-1H-imidazole-5-carboxylate]"
2,600 nM,"CCOC(=O)c1c(NC(=O)C(CC)c2ccccc2)nc(SC)n1-c1ccccc1 (stereo not shown) [1H-imidazole-5-carboxylic acid, 2-(methylthio)-4-[(1-oxo-2-phenylbutyl)amino]-1-phenyl-, ethyl ester]"
3,2300 nM,"CCOC(=O)c1c(NC(=O)c2ccc(Cl)c(Cl)c2)nc(SC)n1Cc1ccccc1 [1H-imidazole-5-carboxylic acid, 4-[(3,4-dichlorobenzoyl)amino]-2-(methylthio)-1-(phenylmethyl)-, ethyl ester]"
4,300 nM,"COCC(C)(C)OC(=O)c1c(NC(=O)C2COc3ccccc3O2)nc(OC)n1-c1ccccc1 (stereo not shown) [2-methoxy-1,1-dimethylethyl 4-[(2,3-dihydro-1,4-benzodioxin-2-ylcarbonyl)amino]-2-methoxy-1-phenyl-1H-imidazole-5-carboxylate]"
